Results as given in patent publication US20120189706A1, “Macrocystis Pyrifera Derived Health and Wellness Products and Methods of Using the Same” (Knocean Sciences, Inc., priority 2009, published 2012).
≈ marks a conversion by molar mass, not a printed value.

Assays:
[1] = tested on: HIV-1 strain IIIB; assay: HIV-1 Cytoprotection assay; assay type: cell-based
[2] = tested on: CEM-SS cells
[3] = tested on: MRC-5 cells; assay: Compound cytotoxicity in Rhinovirus Cytoprotection assay (MTS); assay type: cell-based, Human; settings: 7 days
Excerpt: The Rhinovirus Cytoprotection assay uses MRC-5 cells and Rhinovirus strains 1B, 14, or 26. […] Each assay includes enviroxime (ENV) as a positive control.

[4] = tested on: Rhinovirus strain 1B; assay: Rhinovirus Cytoprotection assay in MRC-5 cells; assay type: cell-based
Protocol: (§1) The Rhinovirus Cytoprotection assay uses MRC-5 cells and Rhinovirus strains 1B, 14, or 26. […] Each assay includes enviroxime (ENV) as a positive control. […] The viruses used for this assay are Rhinovirus strains 1B, 14, or 26. […] For each assay, a pre-titered aliquot of virus is removed from the freezer (−80° C.) and allowed to thaw slowly to room temperature in a biological safety cabinet. The virus is resuspended and diluted into tissue culture medium such that the amount of virus added to each well is the amount determined to give between 85 to 95% cell killing at 6-7 days post-infection.

[5] = tested on: RSV strain Long; assay: Respiratory Syncytial Virus (RSV) Cytoprotection assay; assay type: cell-based; settings: human respiratory syncytial virus, 168 h, A549 cells, 7 days
Protocol: as §1, with “Respiratory Syncytial Virus (RSV)” for “Rhinovirus”, “A549” for “MRC-5”, “RSV strain Long.” for “Rhinovirus strains 1B, 14, or 26.”, “ribavirin (RBV)” for “enviroxime (ENV)”, “virus” for “viruses”, “is RSV strain Long.” for “are Rhinovirus strains 1B, 14, or 26.”

[6] = tested on: Vero E6 cells; assay: Compound cytotoxicity in Dengue Virus Cytoprotection assay (MTS); settings: 7 days
[7] = tested on: Coxsackie A strain A7; assay: Coxsackie A virus Cytoprotection assay; assay type: cell-based; settings: MRC5, 168 h, MRC-5 cells, 7 days
Protocol: The Coxsackie A virus Cytoprotection assay uses MRC-5 cells and Coxsackie A strains A7 or A21. […] Each assay includes ribavirin (RBV) as a positive control. […] The viruses used for this assay are Coxsackie A strains A7 or A21. […] For each assay, a pre-titered aliquot of virus is removed from the freezer (−80° C.) and allowed to thaw slowly to room temperature in a biological safety cabinet. The virus is resuspended and diluted into tissue culture medium such that the amount of virus added to each well is the amount determined to give between 85 to 95% cell killing at 7 days post-infection.

[8] = tested on: Influenza A strain A/Victoria/3/75 (H3N2); assay: Influenza A Cytoprotection assay; assay type: cell-based; settings: Influenza A virus, H3N2, 168 h, MDCK cells, 7 days
[9] = tested on: HSV-1 strain HF; assay: HSV Cytoprotection assay; assay type: cell-based
Protocol: The HSV Cytoprotection assay uses Vero cells and HSV-1 strain HF or HSV-2 strain MS. […] Each assay includes acyclovir (ACV) as a positive control. […] The standard viruses used for this assay are HSV-1 strain HF and HSV-2 strain MS (other viruses available upon request). […] For each assay, a pre-titered aliquot of virus is removed from the freezer (−80° C.) and allowed to thaw slowly to room temperature in a biological safety cabinet. The virus is resuspended and diluted into tissue culture medium such that the amount of virus added to each well is the amount determined to give between 85 to 95% cell killing at 5 days post-infection.

[10] = Compound cytotoxicity in HSV Cytoprotection assay (MTS); assay type: cell-based; settings: African green monkey (Cercopithecus aethiops), Vero cells (uninfected, cells plus compound only), read-out: TC50

Cc1cn([C@H]2C[C@H](N=[N+]=[N-])[C@@H](CO)O2)c(=O)[nH]c1=O [AZT]
IC50 ([1]; HIV-1 Strain IIIB, CEM-SS cells, 6 days): 0.172 µM | Antiviral Index ([1]; TC50/IC50, HIV-1): >5.83 | CC50 [2]: > 1 µM

CC(C)S(=O)(=O)n1c(N)nc2ccc(/C(=N/O)c3ccccc3)cc21 [Enviroxime, enviroxime]
TC50 [3]: >10 µg/mL | IC50 ([4]; Enterovirus, MRC5, 168 h, Rhinovirus Strain 1B, MRC-5 cells, 7 days): 0.485 µg/mL (≈ 1.35 µM) | Antiviral Index ([4]; TC50/IC50, Rhinovirus): >20.6

NC(=O)c1ncn([C@@H]2O[C@H](CO)[C@@H](O)[C@H]2O)n1 [Ribavirin, ribavirin]
IC50 [5]: 12.2 µg/mL (≈ 50 µM) | TC50 [6]: >200 µg/mL | IC50 [7]: 7.04 µg/mL (≈ 28.8 µM) | IC50 [8]: 4.45 µg/mL (≈ 18.2 µM)

Nc1nc2c(ncn2COCCO)c(=O)[nH]1 [Acyclovir, acyclovir]
IC50 ([9]; Human alphaherpesvirus 1, 120 h, HSV-1 Strain HF, Vero cells, 5 days): 6.92 µM | Antiviral Index ([9]; TC50/IC50, HSV-1): >14.5 | CC50 at 5 days [10]: > 100 µM
